In assay [1] the test system is S. cerevisiae apl2Δ mutant growth inhibition. Description: growth inhibition of apl2Δ yeast, dose response, selectivity assay for post-Golgi transport modulator project, S. cerevisiae, secondary screen, background strain comparison (AID 789).
Assay in assay [2]: as above
To be noted: S. cerevisiae background (wild-type parent) strain growth inhibition.

The term IC50 denotes the concentration that gives 50% inhibition.

The structures appear in SMILES notation. The source made the active and inactive calls. The rule behind the calls is not given here.

`O=C(C1COc2ccccc2O1)N1CCN(Cc2ccc3c(c2)OCO3)CC1` (stereo not given): the results for the IC50 in assay [1] and in assay [2] were > 10 µM (inactive) and greater than 10 µM, respectively.
In the same order, the values of `CC(C)c1ccc(C2C3CSCC=C3C(C#N)=C(N)C2(C#N)C#N)cc1` (stereo not given) are 1.84 µM (inactive) and 0.843 µM.
As to `Cc1ccc(S(=O)(=O)c2c(C)nn(C(C)(C)C)c2OC(=O)c2ccc(Br)o2)cc1`, the IC50 in assay [1] is > 10 µM (inactive); in assay [2], greater than 10 µM.
In the same order, the values of `N=c1c2c(-c3ccccc3)c(-c3ccccc3)n(Cc3ccco3)c2ncn1Cc1ccco1` are 16.7 µM and 21.5 µM.
`CCN1CCN(c2c(Cl)cccc2NC(=O)c2ccc(Br)o2)CC1`: the IC50 in assay [1] is > 10 µM (inactive); in assay [2] it was greater than 10 µM.

The record behind these values is PubChem BioAssay AID789 (SRMLSC, 2007).
